Reference: ChEMBL document CHEMBL3045936, “Synthesis of new piperidyl indanone derivatives as anticonvulsant agents” (Med Chem Res, 2012)
The source made the active and inactive calls. The calls are words filed in the database; no cut-off is given here.

Tests used:
Mus musculus [1] = test: Neurotoxicity in ip dosed Mus musculus Swiss albino (mouse) assessed as minimal motor impairment after 4 hr by rotorod test; format: toxicity, organism-based; conditions: in vivo
Mus musculus [2] = test: Anticonvulsant activity in ip dosed Mus musculus Swiss albino (mouse) assessed as protection against maximal electroshock-induced seizures after 0.5 hr; format: functional; conditions: read-out: MED
Mus musculus [3] = test: Anticonvulsant activity in Mus musculus Swiss albino (mouse) assessed as protection against subcutaneous pentylenetetrazole-induced seizures at 300 mg/kg, ip after 4 hr; format: functional, organism-based; set-up: dose 300 mg/kg
Mus musculus [4] = test: Anticonvulsant activity in ip dosed Mus musculus Swiss albino (mouse) assessed as protection against subcutaneous pentylenetetrazole-induced seizures after 0.5 hr; format: functional; conditions: read-out: MED
Mus musculus [5] = test: Neurotoxicity in ip dosed Mus musculus Swiss albino (mouse) assessed as minimal motor impairment after 0.5 hr by rotorod test; format: toxicity, organism-based; conditions: in vivo
Mus musculus [6] = test: Anticonvulsant activity in Mus musculus Swiss albino (mouse) assessed as protection against maximal electroshock-induced seizures at 300 mg/kg, ip after 4 hr; format: functional, organism-based; set-up: dose 300 mg/kg
Mus musculus [7] = test: Neurotoxicity in Mus musculus Swiss albino (mouse) assessed as potentiation of ethanol-mediated effect at 100 to 300 mg/kg, ip administered 1 hr followed by ethanol challenge; format: toxicity, organism-based; set-up: dose 100-300 mg/kg, route intraperitoneal; conditions: in vivo
[8] = Lipophilicity, log P of the compound; format: physicochemical; conditions: octanol/water
Rattus norvegicus [9] = test: Anticonvulsant activity in Rattus norvegicus Wistar (rat) assessed as increase in GABA level in medulla oblongata region measured per 100 mg of tissue at 100 mg/kg, ip after 2 hr (reference value: 40.57 +/- 0.2 ug); format: functional; conditions: route intraperitoneal
Mus musculus [10] = test: Neurotoxicity in Mus musculus Swiss albino (mouse) assessed as minimal motor impairment at 300 mg/kg, ip after 4 hr by rotorod test; format: toxicity, organism-based; set-up: dose 300 mg/kg, route intraperitoneal; conditions: in vivo
Rattus norvegicus [11] = test: Anticonvulsant activity in Rattus norvegicus Wistar (rat) assessed as increase in GABA level in olfactory lob region measured per 100 mg of tissue at 100 mg/kg, ip after 2 hr (reference value: 13.22 +/- 0.03 ug); format: functional; conditions: route intraperitoneal
Rattus norvegicus [12] = test: Anticonvulsant activity in Rattus norvegicus Wistar (rat) assessed as increase in GABA level in mid brain region measured per 100 mg of tissue at 100 mg/kg, ip after 2 hr (reference value: 44.38 +/- 0.219 ug); format: functional; conditions: route intraperitoneal
Rattus norvegicus [13] = test: Anticonvulsant activity in Rattus norvegicus Wistar (rat) assessed as increase in GABA level in cerebellum region measured per 100 mg of tissue at 100 mg/kg, ip after 2 hr (reference value: 25.27 +/- 0.57 ug); format: functional; conditions: route intraperitoneal
Mus musculus [14] = test: Anticonvulsant activity in ip dosed Mus musculus Swiss albino (mouse) assessed as protection against maximal electroshock-induced seizures after 4 hr; format: functional; conditions: read-out: MED
Mus musculus [15] = test: Anticonvulsant activity in ip dosed Mus musculus Swiss albino (mouse) assessed as protection against subcutaneous pentylenetetrazole-induced seizures after 4 hr; format: functional; conditions: read-out: MED
Mus musculus [16] = test: Anticonvulsant activity in Mus musculus Swiss albino (mouse) assessed as protection against subcutaneous pentylenetetrazole-induced seizures at 300 mg/kg, ip after 0.5 hr; format: functional, organism-based; set-up: dose 300 mg/kg
Mus musculus [17] = test: Neurotoxicity in Mus musculus Swiss albino (mouse) assessed as minimal motor impairment at 300 mg/kg, ip after 0.5 hr by rotorod test; format: toxicity, organism-based; set-up: dose 300 mg/kg, route intraperitoneal; conditions: in vivo

Row | Structure (SMILES) | MTC (Mus musculus [1]) | minimal effective dose (Mus musculus [2]) | Activity (Mus musculus [3]) | minimal effective dose (Mus musculus [4]) | MTC (Mus musculus [5]) | Activity (Mus musculus [6]) | Activity (Mus musculus [7]) | logP [8] | Activity (Rattus norvegicus [9]) | Activity (Mus musculus [10]) | Activity (Rattus norvegicus [11]) | Activity (Rattus norvegicus [12]) | Activity (Rattus norvegicus [13]) | minimal effective dose (Mus musculus [14]) | minimal effective dose (Mus musculus [15]) | Activity (Mus musculus [16]) | Activity (Mus musculus [17])
1 | COc1cc2c(cc1OC)C(=O)C(CC1CCN(C(=S)Nc3ccccc3C)CC1)C2 (stereo not drawn) | 300 mg/kg | 100 mg/kg | inactive | 300 mg/kg | 100 mg/kg | inactive | Non-toxic |  |  |  |  |  |  |  |  |  | 
2 | COc1cc2c(cc1OC)C(=O)C(CC1CCN(C(=S)Nc3ccc([N+](=O)[O-])cc3)CC1)C2 (stereo not drawn) |  | 30 mg/kg | inactive | 100 mg/kg | 300 mg/kg |  | Non-toxic | 4.58 | 35.13 µg | Non-toxic | 15.71 µg | 59.33 µg | 28.06 µg | 300 mg/kg |  |  | 
3 | NC(=O)N1c2ccccc2C=Cc2ccccc21 [CARBAMAZEPINE] |  | 30 mg/kg |  | 300 mg/kg | 300 mg/kg |  |  |  |  | Non-toxic |  |  |  | 100 mg/kg | 100 mg/kg |  | 
4 | COc1cc2c(cc1OC)C(=O)C(CC1CCN(C(=S)Nc3ccc(C)cc3)CC1)C2 (stereo not drawn) |  | 30 mg/kg |  | 100 mg/kg | 300 mg/kg |  |  | 4.58 | 49.82 µg | Non-toxic | 15.62 µg | 61.05 µg | 31.83 µg | 100 mg/kg | 300 mg/kg |  | 
5 | COc1cc2c(cc1OC)C(=O)C(CC1CCN(C(=S)Nc3ccccc3Cl)CC1)C2 (stereo not drawn) |  | 100 mg/kg |  | 300 mg/kg | 300 mg/kg |  | Toxic |  |  | Non-toxic |  |  |  | 300 mg/kg | 300 mg/kg |  | 
6 | COc1cc2c(cc1OC)C(=O)C(CC1CCN(C(=S)Nc3cccc(C)c3)CC1)C2 (stereo not drawn) |  | 300 mg/kg |  |  |  | inactive |  |  |  |  |  |  |  |  |  |  | 
7 | O=C1NC(=O)C(c2ccccc2)(c2ccccc2)N1 [PHENYTOIN] | 100 mg/kg | 30 mg/kg | inactive |  | 100 mg/kg |  |  |  |  |  |  |  |  | 30 mg/kg |  | inactive | 
8 | COc1cc2c(cc1OC)C(=O)C(CC1CCN(C(=S)Nc3cccc(Cl)c3)CC1)C2 (stereo not drawn) |  | 300 mg/kg |  |  |  | inactive |  |  |  |  |  |  |  |  |  |  | 
9 | CCCNC(=S)N1CCC(CC2Cc3cc(OC)c(OC)cc3C2=O)CC1 (stereo not drawn) |  | 100 mg/kg |  |  | 300 mg/kg |  | Non-toxic |  |  | Non-toxic |  |  |  | 300 mg/kg | 300 mg/kg | inactive | 
10 | COc1cc2c(cc1OC)C(=O)C(CC1CCN(C(=S)Nc3ccccc3[N+](=O)[O-])CC1)C2 (stereo not drawn) | 300 mg/kg | 100 mg/kg | inactive |  |  |  |  |  |  |  |  |  |  | 300 mg/kg |  | inactive | Non-toxic
11 | CCCCNC(=S)N1CCC(CC2Cc3cc(OC)c(OC)cc3C2=O)CC1 (stereo not drawn) | 300 mg/kg | 100 mg/kg |  | 100 mg/kg | 300 mg/kg |  | Non-toxic |  |  |  |  |  |  | 100 mg/kg | 300 mg/kg |  | 
12 | COc1cc2c(cc1OC)C(=O)C(CC1CCN(C(=S)Nc3ccccc3)CC1)C2 (stereo not drawn) |  | 100 mg/kg |  | 100 mg/kg | 300 mg/kg |  |  |  |  | Non-toxic |  |  |  | 300 mg/kg | 300 mg/kg |  | 
13 | COc1cc2c(cc1OC)C(=O)C(CC1CCN(C(=S)Nc3ccc(Cl)cc3)CC1)C2 (stereo not drawn) | 300 mg/kg | 30 mg/kg |  | 100 mg/kg | 100 mg/kg |  | Non-toxic | 5.11 | 40.75 µg |  | 13.47 µg | 44.81 µg | 27.66 µg | 100 mg/kg | 300 mg/kg |  | 
14 | COc1cc2c(cc1OC)C(=O)C(CC1CCN(C(=S)Nc3cccc([N+](=O)[O-])c3)CC1)C2 (stereo not drawn) |  | 300 mg/kg |  |  |  | inactive |  |  |  |  |  |  |  |  |  |  | 
